Several values for one entry are separate records, joined by “and”; a condition that tells them apart may be missing. Identical values can stand only once. Activity calls are given as the source filed them. How the calls were made is not given here.
Tested on: rodent lifetime carcinogenesis bioassay, tumor incidence TD50
Experiment: carcinogenic potency in animals, long-term in vivo studies, CPDB compilation (AID 1745844)

With `COC(=O)C1=C(C)NC(C)=C(C(=O)OCCc2ccc(N3CCN(C(c4ccccc4)c4ccccc4)CC3)cc2)C1c1cccc([N+](=O)[O-])c1` (stereo not drawn) the TD50 (mouse, strain B6C3F1, females, in feed, site: any site (literature study), lesion: several types, types named in the paper, dosed 78 weeks, study length 78 weeks) was 293 mg/kg/day (inactive), the TD50 (mouse, strain B6C3F1, females, in feed, site: liver, lesion: hepatocellular adenoma, dosed 78 weeks, study length 78 weeks) was 714 mg/kg/day (inactive) and the carcinogen call (mouse, strain B6C3F1, females, in feed, site: lung, lesion: adenocarcinoma, dosed 78 weeks, study length 78 weeks) was “negative (inactive)”. For the same compound, the TD50 (mouse, strain B6C3F1, females, in feed, site: lung, lesion: alveolar/bronchiolar adenoma, dosed 78 weeks, study length 78 weeks) was 243 mg/kg/day (inactive), the carcinogen call (mouse, strain B6C3F1, males, in feed, site: any site (literature study), lesion: several types, types named in the paper, dosed 78 weeks, study length 78 weeks) was “negative (inactive)” and the carcinogen call (mouse, strain B6C3F1, males, in feed, site: liver, lesion: hepatocellular adenoma, dosed 78 weeks, study length 78 weeks) was “negative (inactive)”. The TD50 (mouse, strain B6C3F1, males, in feed, site: liver, lesion: hepatocellular carcinoma, dosed 78 weeks, study length 78 weeks) was 898 mg/kg/day (inactive), the carcinogen call (mouse, strain B6C3F1, males, in feed, site: lung, lesion: adenocarcinoma, dosed 78 weeks, study length 78 weeks) was “negative (inactive)” and the carcinogen call (mouse, strain B6C3F1, males, in feed, site: lung, lesion: alveolar/bronchiolar adenoma, dosed 78 weeks, study length 78 weeks) was “negative (inactive)”. The TD50 (rat, strain F344/DuCrj, females, in feed, site: any site (literature study), lesion: several types, types named in the paper, dosed 104 weeks, study length 104 weeks) was 46.1 mg/kg/day (inactive), the TD50 (rat, strain F344/DuCrj, females, in feed, site: liver, lesion: hepatocellular adenoma, dosed 104 weeks, study length 104 weeks) was 509 mg/kg/day (inactive) and the carcinogen call (rat, strain F344/DuCrj, males, in feed, site: any site (literature study), lesion: several types, types named in the paper, dosed 104 weeks, study length 104 weeks) was “negative (inactive)”. The carcinogen call (rat, strain F344/DuCrj, males, in feed, site: liver, lesion: hepatocellular adenoma, dosed 104 weeks, study length 104 weeks) was “negative (inactive)”.

With `Cc1cc(O)c2c(c1)C(=O)c1cc(O)cc(O)c1C2=O` the TD50 (mouse, strain B6C3F1, females, in feed, site: any site (literature study), lesion: several types, types named in the paper, dosed 104 weeks, study length 104 weeks) was 548 mg/kg/day (inactive), the TD50 (mouse, strain B6C3F1, females, in feed, site: lung, lesion: alveolar/bronchiolar adenoma + alveolar/bronchiolar carcinoma, dosed 104 weeks, study length 104 weeks) was 65800 mg/kg/day and the TD50 (mouse, strain B6C3F1, males, in feed, site: kidney, lesion: tubule adenoma + tubule carcinoma, dosed 104 weeks, study length 104 weeks) was 965 mg/kg/day and 885 mg/kg/day. For the same compound, the TD50 (rat, strain Fischer 344, females, in feed, site: Zymbal's gland, lesion: carcinoma, dosed 104 weeks, study length 104 weeks) was 1970 mg/kg/day, the TD50 (rat, strain Fischer 344, females, in feed, site: any site (literature study), lesion: several types, types named in the paper, dosed 104 weeks, study length 104 weeks) was 797 mg/kg/day and the TD50 (rat, strain Fischer 344, females, in feed, site: liver, lesion: hepatocellular adenoma + hepatoblastoma + hepatocellular carcinoma, dosed 104 weeks, study length 104 weeks) was 4300 mg/kg/day. The carcinogen call (rat, strain Fischer 344, males, in feed, site: any site (literature study), lesion: several types, types named in the paper, dosed 104 weeks, study length 104 weeks) was “negative (inactive)”.

For `CNC(=S)N(C)C`, the TD50 (mouse, strain B6C3F1, females, in feed, site: any site (literature study), lesion: several types, types named in the paper, dosed 77 weeks, study length 91 weeks) was 1970 mg/kg/day (inactive), the TD50 (mouse, strain B6C3F1, females, in feed, site: lung, lesion: alveolar/bronchiolar adenoma + alveolar/bronchiolar carcinoma, dosed 77 weeks, study length 91 weeks) was 1260 mg/kg/day and the carcinogen call (mouse, strain B6C3F1, males, in feed, site: any site (literature study), lesion: several types, types named in the paper, dosed 77 weeks, study length 91 weeks) was “negative (inactive)”. It also gave a TD50 (mouse, strain B6C3F1, males, in feed, site: lung, lesion: alveolar/bronchiolar adenoma + alveolar/bronchiolar carcinoma, dosed 77 weeks, study length 91 weeks) of 478 mg/kg/day, a TD50 (rat, strain Fischer 344, females, in feed, site: any site (literature study), lesion: several types, types named in the paper, dosed 77 weeks, study length 106 weeks) of 17.4 mg/kg/day and a TD50 (rat, strain Fischer 344, females, in feed, site: thyroid gland, lesion: follicular-cell adenoma + follicular-cell carcinoma, dosed 77 weeks, study length 106 weeks) of 25.8 mg/kg/day. For the same compound, the TD50 (rat, strain Fischer 344, females, in feed, site: thyroid gland, lesion: follicular-cell carcinoma, dosed 77 weeks, study length 106 weeks) was 45 mg/kg/day and the carcinogen call (rat, strain Fischer 344, males, in feed, site: any site (literature study), lesion: several types, types named in the paper, dosed 77 weeks, study length 106 weeks) was “negative (inactive)”.

With `O=S(=O)(c1ccc(Cl)cc1)c1cc(Cl)c(Cl)cc1Cl` the TD50 (mouse, strain B6AKF1, females, oral dosing, site: any site (literature study), lesion: several types, types named in the paper, dosed 76 weeks, study length 76 weeks) was 233 mg/kg/day (inactive), the TD50 (mouse, strain B6AKF1, females, oral dosing, site: liver, lesion: hepatoma, dosed 76 weeks, study length 76 weeks) was 233 mg/kg/day (inactive) and the carcinogen call (mouse, strain B6AKF1, females, oral dosing, site: lung, lesion: adenoma, dosed 76 weeks, study length 76 weeks) was “negative (inactive)”. For the same compound, the carcinogen call (mouse, strain B6AKF1, males, oral dosing, site: any site (literature study), lesion: several types, types named in the paper, dosed 76 weeks, study length 76 weeks) was “negative (inactive)”, the carcinogen call (mouse, strain B6AKF1, males, oral dosing, site: liver, lesion: hepatoma, dosed 76 weeks, study length 76 weeks) was “negative (inactive)” and the carcinogen call (mouse, strain B6AKF1, males, oral dosing, site: lung, lesion: adenoma, dosed 76 weeks, study length 76 weeks) was “negative (inactive)”. The TD50 (mouse, strain B6C3F1, females, oral dosing, site: any site (literature study), lesion: several types, types named in the paper, dosed 76 weeks, study length 76 weeks) was 220 mg/kg/day (inactive), the carcinogen call (mouse, strain B6C3F1, females, oral dosing, site: liver, lesion: hepatoma, dosed 76 weeks, study length 76 weeks) was “negative (inactive)” and the carcinogen call (mouse, strain B6C3F1, females, oral dosing, site: lung, lesion: several types, types named in the paper, dosed 76 weeks, study length 76 weeks) was “negative (inactive)”. For the same compound, the TD50 (mouse, strain B6C3F1, males, oral dosing, site: any site (literature study), lesion: several types, types named in the paper, dosed 76 weeks, study length 76 weeks) was 35.6 mg/kg/day (inactive), the TD50 (mouse, strain B6C3F1, males, oral dosing, site: liver, lesion: hepatoma, dosed 76 weeks, study length 76 weeks) was 46.2 mg/kg/day (inactive) and the TD50 (mouse, strain B6C3F1, males, oral dosing, site: lung, lesion: adenoma, dosed 76 weeks, study length 76 weeks) was 205 mg/kg/day (inactive).

In the case of `ClC1=C(Cl)[C@]2(Cl)[C@@H]3[C@H]4C[C@H]([C@@H]5O[C@H]45)[C@@H]3[C@@]1(Cl)C2(Cl)Cl`, the TD50 (mouse, strain B6C3F1, females, in feed, site: any site (literature study), lesion: several types, types named in the paper, dosed 80 weeks, study length 90 weeks) is reported as 6.88 mg/kg/day (inactive), the TD50 (mouse, strain B6C3F1, females, in feed, site: lung, lesion: alveolar/bronchiolar adenoma + alveolar/bronchiolar carcinoma, dosed 80 weeks, study length 90 weeks) is reported as 67 mg/kg/day and the TD50 (mouse, strain B6C3F1, males, in feed, site: any site (literature study), lesion: several types, types named in the paper, dosed 80 weeks, study length 90 weeks) is reported as 0.546 mg/kg/day (inactive). For the same compound, the TD50 (mouse, strain B6C3F1, males, in feed, site: liver, lesion: hepatocellular adenoma + hepatocellular carcinoma + neoplastic nodule, dosed 80 weeks, study length 90 weeks) was 0.854 mg/kg/day, the TD50 (mouse, strain B6C3F1, males, in feed, site: lung, lesion: alveolar/bronchiolar adenoma + alveolar/bronchiolar carcinoma, dosed 80 weeks, study length 90 weeks) was 1.27 mg/kg/day and the TD50 (rat, strain Osborne-Mendel, females, in feed, site: adrenal gland, lesion: adenoma, NOS + carcinoma, NOS, dosed 80 weeks, study length 109 weeks) was 0.227 mg/kg/day (inactive). The carcinogen call (rat, strain Osborne-Mendel, females, in feed, site: any site (literature study), lesion: several types, types named in the paper, dosed 80 weeks, study length 110 weeks) was “negative (inactive)”, the carcinogen call (rat, strain Osborne-Mendel, females, in feed, site: any site (literature study), lesion: several types, types named in the paper, dosed 117 weeks, study length 121 weeks) was “negative (inactive)” and the TD50 (rat, strain Osborne-Mendel, females, in feed, site: liver, lesion: hemangioma, dosed 117 weeks, study length 121 weeks) was 42.3 mg/kg/day (inactive). For the same compound, the TD50 (rat, strain Osborne-Mendel, females, in feed, site: liver, lesion: hepatocellular adenoma + hepatocellular carcinoma + neoplastic nodule, dosed 80 weeks, study length 110 weeks) was 7.44 mg/kg/day, the TD50 (rat, strain Osborne-Mendel, females, in feed, site: pituitary gland, lesion: adenoma, NOS, dosed 80 weeks, study length 109 weeks) was 0.579 mg/kg/day and the TD50 (rat, strain Osborne-Mendel, males, in feed, site: adrenal gland, lesion: adenoma, NOS + carcinoma, NOS, dosed 80 weeks, study length 110 weeks) was 0.553 mg/kg/day (inactive). For the same compound, the TD50 (rat, strain Osborne-Mendel, males, in feed, site: adrenal gland, lesion: adenoma, NOS, dosed 80 weeks, study length 110 weeks) was 0.66 mg/kg/day, the TD50 (rat, strain Osborne-Mendel, males, in feed, site: all sites, lesion: hemangioma, dosed 80 weeks, study length 110 weeks) was 0.661 mg/kg/day and the TD50 (rat, strain Osborne-Mendel, males, in feed, site: any site (literature study), lesion: several types, types named in the paper, dosed 80 weeks, study length 110 weeks) was 0.776 mg/kg/day (inactive). The carcinogen call (rat, strain Osborne-Mendel, males, in feed, site: any site (literature study), lesion: several types, types named in the paper, dosed 121 weeks, study length 126 weeks) was “negative (inactive)”, the carcinogen call (rat, strain Osborne-Mendel, males, in feed, site: liver, lesion: hemangioma, dosed 121 weeks, study length 126 weeks) was “negative (inactive)” and the TD50 (rat, strain Osborne-Mendel, males, in feed, site: pancreatic islets, lesion: islet-cell carcinoma, dosed 80 weeks, study length 110 weeks) was 1.75 mg/kg/day.

For `O=C1c2ccccc2C(=O)c2c(O)cccc21`, the TD50 (rat, strain ACI/n, males, in feed, site: cecum, lesion: adenocarcinoma, dosed 68 weeks, study length 68 weeks) was 619 mg/kg/day, the TD50 (rat, strain ACI/n, males, in feed, site: cecum, lesion: adenoma, dosed 68 weeks, study length 68 weeks) was 277 mg/kg/day and the TD50 (rat, strain ACI/n, males, in feed, site: colon, lesion: adenocarcinoma, dosed 68 weeks, study length 68 weeks) was 246 mg/kg/day. The TD50 (rat, strain ACI/n, males, in feed, site: colon, lesion: adenoma, dosed 68 weeks, study length 68 weeks) was 219 mg/kg/day, the TD50 (rat, strain ACI/n, males, in feed, site: forestomach, lesion: papilloma, dosed 68 weeks, study length 68 weeks) was 789 mg/kg/day and the TD50 (rat, strain ACI/n, males, in feed, site: large intestine, lesion: several types, types named in the paper, dosed 68 weeks, study length 68 weeks) was 59.2 mg/kg/day. For the same compound, the TD50 (rat, strain ACI/n, males, in feed, site: liver, lesion: hepatocellular carcinoma, dosed 68 weeks, study length 68 weeks) was 789 mg/kg/day, the TD50 (rat, strain ACI/n, males, in feed, site: liver, lesion: neoplastic nodule, dosed 68 weeks, study length 68 weeks) was 219 mg/kg/day and the TD50 (rat, strain ACI/n, males, in feed, site: liver, lesion: several types, types named in the paper, dosed 68 weeks, study length 68 weeks) was 219 mg/kg/day. The TD50 (rat, strain ACI/n, males, in feed, site: stomach, glandular, lesion: adenoma, dosed 68 weeks, study length 68 weeks) was 3340 mg/kg/day, the TD50 (rat, strain ACI/n, males, in feed, site: stomach, lesion: several types, types named in the paper, dosed 68 weeks, study length 68 weeks) was 619 mg/kg/day and the TD50 (rat, strain Fischer 344, males, in feed, site: cecum, lesion: adenocarcinoma, dosed 78 weeks, study length 78 weeks) was 432 mg/kg/day. The TD50 (rat, strain Fischer 344, males, in feed, site: colon, lesion: adenocarcinoma, dosed 78 weeks, study length 78 weeks) was 432 mg/kg/day, the TD50 (rat, strain Fischer 344, males, in feed, site: colon, lesion: several types, types named in the paper, dosed 78 weeks, study length 78 weeks) was 432 mg/kg/day and the TD50 (rat, strain Fischer 344, males, in feed, site: large intestine, lesion: several types, types named in the paper, dosed 78 weeks, study length 78 weeks) was 222 mg/kg/day.
